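Results reflect a 48-hour exposure of cells in 96-well plates to compound at five concentrations. The concentration for 50% growth inhibition is given as GI50.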 Calls of active or inactive are those of the source. Cut-off read from the data, not from the text of the source: active = GI50 up to about 1.1 µM and inactive = higher.
How the values were obtained:
Experiment in all cases: DTP human tumour cell line panel, 48 h
SN12C = test system: SN12C
BT-549 = test system: BT-549
SR = test system: SR
HL-60 = test system: HL-60
PC-3 = test system: PC-3
ACHN = test system: ACHN
COLO 205 = test system: COLO 205
Hs-578T = test system: Hs-578T
SK-MEL-28 = test system: SK-MEL-28
UO-31 = test system: UO-31
RXF 393 = test system: RXF 393
MDA-MB-435 = test system: MDA-MB-435
OVCAR-3 = test system: OVCAR-3
SK-OV-3 = test system: SK-OV-3
MDA-N = test system: MDA-N
T47D = test system: T47D

Measured: GI50

Sc1ncc2[nH]nnc2n1
inactive: SN12C > 100 µM | BT-549 > 100 µM | SR > 100 µM | HL-60 > 100 µM | PC-3 > 100 µM | ACHN > 100 µM | COLO 205 > 100 µM | Hs-578T > 100 µM | SK-MEL-28 > 100 µM | UO-31 > 100 µM | RXF 393 > 100 µM | MDA-MB-435 > 100 µM | OVCAR-3 > 100 µM

CCOP(=O)(OCC)/C(C#N)=C/c1coc2cc(C)cc(C)c2c1=O
inactive: SN12C > 100 µM | SK-OV-3 > 100 µM | BT-549 > 100 µM | SR > 100 µM | HL-60 > 100 µM | PC-3 > 100 µM | ACHN > 100 µM | COLO 205 > 100 µM | MDA-N > 100 µM | Hs-578T > 100 µM | SK-MEL-28 > 100 µM | UO-31 > 100 µM | MDA-MB-435 > 100 µM | OVCAR-3 > 100 µM

C=C[C@@]1(O)CCCC[C@@H]1CC(Sc1ccccc1)Sc1ccccc1
inactive: SN12C 18.2 µM | SK-OV-3 16.4 µM | T47D 11.1 µM | SR 37.1 µM | HL-60 49.8 µM | PC-3 14.3 µM | ACHN 67.5 µM | COLO 205 18.3 µM | MDA-N 20.1 µM | Hs-578T 15.5 µM | SK-MEL-28 25.4 µM | UO-31 17.2 µM | RXF 393 14.9 µM | MDA-MB-435 16.3 µM

Cn1c(SCc2ccc(F)cc2)nnc1C12CC3CC(CC(C3)C1)C2
inactive: SN12C 43.2 µM | SK-OV-3 52.1 µM | T47D 56.9 µM | SR 24.2 µM | HL-60 11.1 µM | PC-3 28.8 µM | ACHN 33.5 µM | COLO 205 17 µM | MDA-N 38.5 µM | Hs-578T 34.8 µM | SK-MEL-28 24.3 µM | UO-31 34.4 µM | RXF 393 27.8 µM | MDA-MB-435 22.5 µM | OVCAR-3 29.4 µM

CC(=O)OCC1OC(n2ncc(=O)[nH]c2=O)C(OC(C)=O)C1OC(C)=O (stereo not given)
inactive: SN12C 34.4 µM | SK-OV-3 61.2 µM | T47D > 100 µM | SR 5.36 µM | PC-3 68.9 µM | ACHN 4.9 µM | COLO 205 11.3 µM | MDA-N 32.3 µM | Hs-578T 19.1 µM | SK-MEL-28 > 100 µM | RXF 393 > 100 µM | MDA-MB-435 32.4 µM | OVCAR-3 65.9 µM

Cn1c(=O)n2n(c1=O)C([S+]([O-])c1ccccc1)C2 (stereo not given)
inactive: SN12C > 100 µM | SK-OV-3 > 100 µM | BT-549 > 100 µM | SR 38.3 µM | PC-3 33.4 µM | ACHN > 100 µM | COLO 205 > 100 µM | MDA-N > 100 µM | Hs-578T > 100 µM | SK-MEL-28 > 100 µM | UO-31 > 100 µM | RXF 393 > 100 µM | MDA-MB-435 > 100 µM | OVCAR-3 > 100 µM

CC(=O)/C(=C/NC(=S)Nc1ccccc1)C(=O)Nc1ccccc1C
inactive: SN12C > 100 µM | SK-OV-3 > 100 µM | T47D 52.4 µM | SR > 100 µM | HL-60 84.9 µM | PC-3 > 100 µM | ACHN > 100 µM | COLO 205 > 100 µM | MDA-N > 100 µM | Hs-578T > 100 µM | SK-MEL-28 > 100 µM | UO-31 41.8 µM | RXF 393 > 100 µM | MDA-MB-435 > 100 µM | OVCAR-3 61.1 µM

COc1ccc(C2(O)C(S(=O)(=O)c3ccc(C)cc3)=Cc3ccc(OC)cc32)cc1 (stereo not given)
inactive: SN12C 73.8 µM | SK-OV-3 35.6 µM | T47D 69.5 µM | SR > 100 µM | HL-60 22 µM | PC-3 53.8 µM | ACHN 37.4 µM | COLO 205 > 100 µM | MDA-N > 100 µM | Hs-578T 23.6 µM | SK-MEL-28 32.7 µM | MDA-MB-435 > 100 µM

O=C(Nc1nccs1)NS(=O)(=O)n1cnc2ccccc21
inactive: SN12C > 100 µM | SK-OV-3 > 100 µM | BT-549 > 100 µM | T47D > 100 µM | HL-60 > 100 µM | PC-3 > 100 µM | ACHN > 100 µM | COLO 205 > 100 µM | Hs-578T > 100 µM | SK-MEL-28 > 100 µM | UO-31 > 100 µM | RXF 393 > 100 µM | MDA-MB-435 > 100 µM | OVCAR-3 > 100 µM

NC(=O)C(=CNC(=S)Nc1cccc(C(F)(F)F)c1)C(N)=O
inactive: SN12C > 100 µM | SK-OV-3 > 100 µM | T47D > 100 µM | SR > 100 µM | HL-60 > 100 µM | PC-3 > 100 µM | ACHN > 100 µM | COLO 205 > 100 µM | MDA-N > 100 µM | Hs-578T > 100 µM | SK-MEL-28 > 100 µM | UO-31 > 100 µM | RXF 393 > 100 µM | MDA-MB-435 > 100 µM | OVCAR-3 > 100 µM

OCC1C(OCc2ccccc2)C(OCc2ccccc2)C(OCc2ccccc2)CN1Cc1ccccc1 (stereo not given)
inactive: SN12C 14.5 µM | SK-OV-3 > 100 µM | T47D 22.6 µM | SR 8.83 µM | PC-3 13 µM | ACHN 3.38 µM | COLO 205 14.3 µM | MDA-N 35.4 µM | Hs-578T 24.6 µM | SK-MEL-28 88.9 µM | UO-31 18.4 µM | RXF 393 17.4 µM | MDA-MB-435 24.8 µM | OVCAR-3 47.5 µM

O=[N+]([O-])c1ccc2c(/N=N/c3ccc4ccccc4c3O)c(O)cc(S(=O)(=O)O)c2c1
inactive: SN12C 38.5 µM | SK-OV-3 18.7 µM | BT-549 25.7 µM | T47D 20.4 µM | SR > 29.3 µM | HL-60 9.06 µM | PC-3 18.2 µM | ACHN 7.13 µM | COLO 205 27.7 µM | Hs-578T 41 µM | SK-MEL-28 12 µM | UO-31 5.78 µM | RXF 393 17.9 µM | MDA-MB-435 16.7 µM | OVCAR-3 4.89 µM

CCc1cccc2c3c([nH]c12)-c1ccccc1NC(=O)C3
inactive: SN12C 95.5 µM | SK-OV-3 > 100 µM | BT-549 > 100 µM | T47D 3.66 µM | HL-60 92.3 µM | COLO 205 > 100 µM | Hs-578T 30.7 µM | SK-MEL-28 > 100 µM | UO-31 > 100 µM | MDA-MB-435 35.3 µM | OVCAR-3 > 100 µM

Cc1ccc2c(O)cc(-c3ccc4ccccc4c3)nc2n1
inactive: SN12C 5.3 µM | SK-OV-3 3.37 µM | BT-549 27.4 µM | T47D 7 µM | SR 1.83 µM | HL-60 1.82 µM | ACHN 4.72 µM | COLO 205 2.11 µM | Hs-578T 3.1 µM | SK-MEL-28 5.9 µM | UO-31 8 µM
